Data: patent EP1480941B1, “UREA DERIVATIVES AS HIV ASPARTYL PROTEASE INHIBITORS” (priority 2002, dated 2003)

biological target: HIV protease (Human immunodeficiency virus type 1 group M subtype B, UniProt P04585); assay: Enzymatic (fluorometric FRET) assay for determining the inhibition constant (Ki); type: biochemical; conditions: EDANS/DABCYL substrate, equation of Henderson
Text: Enzymatic assay for determining the inhibition constant (Ki) of synthetic compounds targeting the HIV protease
This is a fluorometric assay based on the cleavage by protease of a substrate carrying a donor group (EDANS) and an acceptor group (DABCYL) on each side of the cleavage site, interacting together through fluorescence resonance energy transfer (FRET) as described by Matayoshi et al. (Science 247:[…], 1990).
After calculation of Vo and Vi, the inhibition constant (Ki) of the compound is determined using the equation of Henderson: (Vo)/(Vi) = 1 + ([I])/(Kiapp) Where Ki = (Kiapp)/((1 + [S])/(Km)) [formula] where Vo = the enzyme's initial velocity Vi = the enzyme velocity in the presence of the inhibitory compound, [I] = inhibitor concentration, [S] = substrate concentration, Km = Michaelis-Menten constant and Kiapp = apparent Ki
Graphs are traced and the Ki determined using GraphPad Prism software v. 3.0.

SMILES | Ki
Cc1ccc(S(=O)(=O)N(CC(C)C)[C@H](CCCCNC(=O)N[C@@H]2CCc3ccccc32)C(=O)O)cc1 [Example 27, (1R,1'R) Nα-isobutyl-Nα-(4-methylbenzenesulfonyl)-N∈-(indanyl-1'-aminocarbonyl)-R-lysine] | > 300 nM

same assay, conditions: EDANS/DABCYL substrate, equation of Henderson; read-out: Ki

SMILES | Ki
Cc1ccc(S(=O)(=O)N(CC(C)C)C(CCCCNC(=N)NCc2ccccc2)C(=O)O)cc1 (racemic) [Example 30, Nα-isobutyl-Nα-(4-methylbenzenesulfonyl)-Nω-benzyl-DL-homoarginine] | > 300 nM
Cc1ccc(S(=O)(=O)N(CC(C)C)[C@@H](CCCCNC(=O)NCc2ccccn2)C(=O)O)cc1 [Example 3, Nα-isobutyl-Nα-(4-methylbenzenesulfonyl)-N∈-[N'-(2-picolyl)aminocarbonyl]-L-lysine] | > 300 nM
Cc1ccc(S(=O)(=O)N(CC(C)C)[C@@H](CCCCNC(=O)NCCc2ccc(O)cc2)C(=O)O)cc1 [Example 5, Nα-isobutyl-Nα-(4-methylbenzenesulfonyl)-N∈-[2'-(4-hydroxyphenethyl)aminocarbonyl]-L-lysine] | > 300 nM
Cc1ccc(S(=O)(=O)N(CC(C)C)[C@@H](CCCCNC(=O)N(CC(C)C)C2CCCCC2)C(=O)O)cc1 [Example 7, Nα-isobutyl-Nα-(4-methylbenzenesulfonyl)-N∈-[(N'-cyclohexyl-N'-isobutyl)aminocarbonyl]-L-lysine] | > 300 nM
Cc1ccc(S(=O)(=O)N(CC(C)C)C(CCCCNC(=S)NC2CCc3ccccc32)C(=O)O)cc1 [Example 14, (1S,TRS) Nα-isobutyl-Nα-(4-methylbenzenesulfonyl)-N∈-(indanyl-1'-aminothiocarbonyl)-S-lysine] | > 300 nM
Cc1ccc(S(=O)(=O)N(CC(C)C)[C@@H](CCCCNC(=O)NCCN2CCCCC2)C(=O)O)cc1 [Example 17, Nα-isobutyl-Nα-(4-methylbenzenesulfonyl)-N∈-[2'-(1-pyperidinyl)ethylaminocarbonyl]-L-lysine] | > 300 nM
Cc1ccc(S(=O)(=O)N(CC(C)C)[C@@H](CCCCNC(=O)Nc2nccc3ccccc23)C(=O)O)cc1 [Example 20, Nα-isobutyl-Nα-(4-methylbenzenesulfonyl)-N∈-(1'-isoquinolylaminocarbonyl)-L-lysine] | > 300 nM
Cc1ccc(S(=O)(=O)N(CC(C)C)[C@@H](CCCCNC(=O)N[C@@H]2c3ccccc3C[C@@H]2O)C(=O)O)cc1 [Example 22, (1S,1'R,2'S) Nα-isobutyl-Nα-(4-methylbenzenesulfonyl)-N∈-(cis-2'-hydroxyindanyl-1'-aminocarbonyl)-S-lysine] | > 300 nM
Cc1ccc(S(=O)(=O)N(CC(C)C)[C@@H](CCCCNC(=O)N[C@H]2c3ccccc3C[C@H]2O)C(=O)O)cc1 [Example 23, (1S,1'S,2'R) Nα-isobutyl-Nα-(4-methylbenzenesulfonyl)-N∈-(cis-2'-hydroxyindanyl-1'-aminocarbonyl)-S-lysine] | > 300 nM
Cc1ccc(S(=O)(=O)N(CC(C)C)[C@@H](CCCCNC(=O)N[C@H]2CCc3ccccc32)C(=O)O)cc1 [Example 25, (15,1'S) Nα-isobutyl-Nα-(4-methylbenzenesulfonyl)-N∈-(indanyl-1'-aminocarbonyl)-S-lysine] | > 300 nM
Cc1ccc(S(=O)(=O)N(CC(C)C)[C@H](CCCCNC(=O)N[C@H]2CCc3ccccc32)C(=O)O)cc1 [Example 26, (1R,1'S) Nα-isobutyl-Nα-(4-methylbenzenesulfonyl)-N∈-(indanyl-1'-aminocarbonyl)-R-lysine] | > 300 nM
Cc1ccc(S(=O)(=O)N(CC(C)C)[C@@H](CCCCNC(=O)N(CCc2ccccc2)Cc2ccccc2)C(=O)O)cc1 [Example 31, Nα-isobutyl-Nα-(4-methylbenzenesulfonyl)-N∈-[(N'-benzyl-N'-phenethyl)aminocarbonyl]-L-lysine] | > 300 nM
Cc1ccc(S(=O)(=O)N(CC(C)C)[C@@H](CCCCNC(=O)N(CC(C)C)CC(C)C)C(=O)O)cc1 [Example 35, Nα-isobutyl-Nα-(4-methylbenzenesulfonyl)-N∈-(N',N'-diisobutylaminocarbonyl)-L-lysine] | > 300 nM
Cc1ccc(S(=O)(=O)N(CC(C)C)[C@H](CO)CCCCNC(=O)N(Cc2ccncc2)Cc2ccncc2)cc1 [Example 46, (2S) 2-N-isobutyl-2-N-(4-methylbenzenesulfonyl)-6-N-[N',N'-di-(4-picolyl)aminocarbonyl]-2,6-diaminohexanol] | > 300 nM
CC(C)CN([C@H](CO)CCCCNC(=O)N(Cc1ccncc1)Cc1ccncc1)S(=O)(=O)c1ccc(N)cc1 [Example 51, (2S) 2-N-(4-aminobenzenesulfonyl)-2-N-isobutyl-6-N [N',N'-di-(4-picolyl)aminocarbonyl]-2,6-diaminohexanol] | > 300 nM
Cc1ccc(S(=O)(=O)N(CC(C)C)[C@@H](CCCCNC(=O)N(Cc2ccccc2)Cc2cccc(N)c2)C(=O)O)cc1 [Example 58, Nα-isobutyl-Nα-(4-methylbenzenesulfonyl)-N∈-[N'-(3-aminobenzyl)-N'-benzylaminocarbonyl]-L-lysine] | > 300 nM
CC(C)CN([C@H](CO)CCCCNC(=O)N(Cc1cccnc1)Cc1cccc(F)c1)S(=O)(=O)c1ccc(N)cc1 [Example 72, (2S) 2-N-(4-aminobenzenesulfonyl)-2-N-isobutyl-6-N-[N'-(3-fluorobenzyl)-N'-(3-picolyl)aminocarbonyl]-2,6-diaminohexanol] | > 300 nM
CC(C)CN([C@H](CO)CCCCNC(=O)N(Cc1cccnc1)Cc1ccccc1F)S(=O)(=O)c1ccc(N)cc1 [Example 73, (2S) 2-N-(4-aminobenzenesulfonyl)-2-N-isobutyl-6-N-[N'-(2-fluorobenzyl)-N'-(3-picolyl)aminocarbonyl]-2,6-diaminohexanol] | > 300 nM
CC(C)CN([C@H](CO)CCCCNC(=O)N(Cc1ccccc1)Cc1ccsc1)S(=O)(=O)c1ccc(N)cc1 [Example 76, (2S) 2-N-(4-aminobenzenesulfonyl)-2-N-isobutyl-6-N-[N'-benzyl-N'-(3-thiophenemethyl)aminocarbonyl]-2,6-diaminohexanol] | 11 nM
COc1ccc(CNC(=O)NCCCC[C@@H](CO)N(CC(C)C)S(=O)(=O)c2ccc(N)cc2)cc1 [Example 77, (2S) 2-N-(4-aminobenzenesulfonyl)-2-N-isobutyl-6-N-(N'-4-methoxybenzylaminocarbonyl)-2,6-diaminohexanol] | > 300 nM
COc1cccc(OC)c1CNC(=O)NCCCC[C@@H](CO)N(CC(C)C)S(=O)(=O)c1ccc(N)cc1 [Example 78, (2S) 2-N-(4-aminobenzenesulfonyl)-2-N-isobutyl-6-N-(N'-2,6-dimethoxybenzylaminocarbonyl)-2,6-diaminohexanol] | > 300 nM
COc1ccc(CNC(=O)NCCCC[C@@H](CO)N(CC(C)C)S(=O)(=O)c2ccc(N)cc2)c(OC)c1 [Example 79, (2S) 2-N-(4-aminobenzenesulfonyl)-2-N-isobutyl-6-N-(N'-2,4-dimethoxybenzylaminocarbonyl)-2,6-diaminohexanol] | > 300 nM
COc1cc(CNC(=O)NCCCC[C@@H](CO)N(CC(C)C)S(=O)(=O)c2ccc(N)cc2)cc(OC)c1 [Example 80, (2S) 2-N-(4-aminobenzenesulfonyl)-2-N-isobutyl-6-N-(N'-3,5-dimethoxybenzylaminocarbonyl)-2,6-diaminohexanol] | > 300 nM

same assay, conditions: Ki, EDANS/DABCYL substrate, equation of Henderson

SMILES | Ki
Cc1ccc(S(=O)(=O)N(CC(C)C)[C@@H](CCCCNC(=O)NCCc2ccccc2)C(=O)O)cc1 [Example 1, Nα-isobutyl-Nα-(4-methylbenzenesulfonyl)-Nε-(2'-phenethylaminocarbonyl)-L-lysine] | 204 nM
Cc1ccc(S(=O)(=O)N(CC(C)C)[C@@H](CCCCNC(=O)N[C@@H](Cc2ccccc2)C(N)=O)C(=O)O)cc1 [Example 8, Nα-isobutyl-Nα-(4-methylbenzenesulfonyl)-N∈-[L-phenylalanylamide-N'a-carbonyl]-L-lysine] | 60 nM
Cc1ccc(S(=O)(=O)N(CC(C)C)[C@@H](CCCCNC(=O)N[C@H](Cc2ccccc2)C(N)=O)C(=O)O)cc1 [Example 9, Nα-isobutyl-Nα-(4-methylbenzenesulfonyl)-N∈-[D-phenylalanylamide-N'α-carbonyl]-L-lysine] | 131 nM
Cc1ccc(S(=O)(=O)N(CC(C)C)[C@@H](CCCCNC(=O)NNC(=O)c2ccccc2O)C(=O)O)cc1 [Example 10, Nα-isobutyl-Nα-(4-methylbenzenesulfonyl)-N∈-[N2-(2-hydroxybenzoyl)-hydrazino-N1-carbonyl]-L-lysine] | 55 nM
Cc1ccc(S(=O)(=O)N(CC(C)C)[C@@H](CCCCNC(=O)NNC(=O)c2ccncc2)C(=O)O)cc1 [Example 11, Nα-isobutyl-Nα-(4-methylbenzenesulfonyl)-N∈-[N2-(pyridine-4-carbonyl)-hydrazino-N1-carbonyl]-L-lysine] | > 300 nM
Cc1ccc(S(=O)(=O)N(CC(C)C)[C@@H](CCCCNC(=O)N[C@@H](Cc2ccccc2)C(=O)NCC(C)C)C(=O)O)cc1 [Example 12, Nα-isobutyl-Nα-(4-methylbenzenesulfonyl)-N∈-(L-phenylalanyl-N'-isobutylamide-N'α-carbonyl)-L-lysine] | 47 nM
Cc1ccc(S(=O)(=O)N(CC(C)C)[C@@H](CCCCNC(=O)N[C@@H](Cc2ccccc2)C(=O)Nc2ccccc2)C(=O)O)cc1 [Example 13, Nα-isobutyl-Nα-(4-methylbenzenesulfonyl)-N∈-(L-phenylalanyl-N'-phenylamide-N'α-carbonyl)-L-lysine] | 60 nM
COC(=O)[C@H](CCCCNC(=O)NCCc1ccccn1)N(CC(C)C)S(=O)(=O)c1ccc(C)cc1 [Example 19, Nα-isobutyl-Nα-(4-methylbenzenesulfonyl)-N∈-[(2'-pyridyl)ethylaminocarbonyl]-L-lysine methyl ester] | > 300 nM
